What was measured:
[1] = target: HiBiT tagged CK1α (Homo sapiens, UniProt P48729+Q96SW2); test: CK1α degradation assay (HiBiT assay); assay type: cell-based; conditions: 20 hours; for Dmax: HT-1080, HT-1080 cells; for DC50: concentration at 50% CK1α degradation
Procedure: (§1) CK1α and GSPT1 Degradation Assay (HiBiT Assay) The following is an example of an assay that can be used to determine the dose-dependent CK1α and GSPT1 degradation activities of test compounds in a human cell line such as HT-1080 ([…]). HT-1080 cells stably overexpressing wild-type CRBN, GSPT1A(1-138)/G575N mutant and HiBiT tagged CK1α or GSPT1 were seeded into 384-well plates (Cat #3764, Corning) pre-spotted with DMSO or test compounds. Increasing concentrations of test compounds (ranging from 3.162×10^-4 μM to 10 μM at a 3.16-fold increment) or DMSO were dispensed into an empty 384-well plate using an Echo Acoustic Liquid Handler (Beckman Coulter). About 10,000 cells in complete DMEM cell culture media were seeded per well. […] Luminescence was then measured with an EnVision plate reader (PerkinElmer) or a PHERAstar plate reader (BMG Labtech). All CK1α or GSPT1 degradation curves were processed using Collaborative Drug Discovery Vault softwares (Burlingame, CA., www.collaborativedrug.com). CK1α or GSPT1 levels in compound-treated wells were normalized to that of DMSO control and expressed as Percent of Control (PoC, y). […]

[2] = target: HiBiT tagged GSPT1 (Homo sapiens, UniProt P15170+Q96SW2); test: GSPT1 degradation assay (HiBiT assay); assay type: cell-based; conditions: 20 hours, maximum GSPT1 degradation; for Dmax: HT-1080, HT-1080 cells
Chain of HiBiT tagged GSPT1 (P15170 whole entry): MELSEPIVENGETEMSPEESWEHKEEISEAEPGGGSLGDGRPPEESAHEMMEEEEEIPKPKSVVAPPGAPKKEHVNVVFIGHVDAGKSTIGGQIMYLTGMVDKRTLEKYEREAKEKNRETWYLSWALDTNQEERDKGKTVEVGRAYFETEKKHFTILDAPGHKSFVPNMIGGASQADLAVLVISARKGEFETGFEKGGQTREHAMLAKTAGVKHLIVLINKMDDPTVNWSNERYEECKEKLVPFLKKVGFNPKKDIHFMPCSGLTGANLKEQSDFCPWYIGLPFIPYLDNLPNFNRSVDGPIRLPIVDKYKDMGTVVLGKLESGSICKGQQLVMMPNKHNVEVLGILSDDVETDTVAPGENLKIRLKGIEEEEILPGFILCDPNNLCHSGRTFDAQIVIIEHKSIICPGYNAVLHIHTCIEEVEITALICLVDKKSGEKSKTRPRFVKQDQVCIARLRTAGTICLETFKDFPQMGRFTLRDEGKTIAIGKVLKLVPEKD
Chain of HiBiT tagged GSPT1 (Q96SW2 whole entry): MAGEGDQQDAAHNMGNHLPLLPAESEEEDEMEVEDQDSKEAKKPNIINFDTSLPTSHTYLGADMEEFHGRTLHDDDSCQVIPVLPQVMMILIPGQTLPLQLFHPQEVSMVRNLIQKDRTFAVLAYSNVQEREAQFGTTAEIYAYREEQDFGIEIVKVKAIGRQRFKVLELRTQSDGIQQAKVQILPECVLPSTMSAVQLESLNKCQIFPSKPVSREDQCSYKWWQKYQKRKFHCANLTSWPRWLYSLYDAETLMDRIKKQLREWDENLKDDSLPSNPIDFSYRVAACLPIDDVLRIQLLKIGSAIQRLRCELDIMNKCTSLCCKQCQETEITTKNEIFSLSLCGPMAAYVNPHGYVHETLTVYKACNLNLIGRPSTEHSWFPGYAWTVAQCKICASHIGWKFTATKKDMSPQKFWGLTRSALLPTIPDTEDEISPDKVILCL
Chain of HiBiT tagged GSPT1 (Q16531 whole entry partner): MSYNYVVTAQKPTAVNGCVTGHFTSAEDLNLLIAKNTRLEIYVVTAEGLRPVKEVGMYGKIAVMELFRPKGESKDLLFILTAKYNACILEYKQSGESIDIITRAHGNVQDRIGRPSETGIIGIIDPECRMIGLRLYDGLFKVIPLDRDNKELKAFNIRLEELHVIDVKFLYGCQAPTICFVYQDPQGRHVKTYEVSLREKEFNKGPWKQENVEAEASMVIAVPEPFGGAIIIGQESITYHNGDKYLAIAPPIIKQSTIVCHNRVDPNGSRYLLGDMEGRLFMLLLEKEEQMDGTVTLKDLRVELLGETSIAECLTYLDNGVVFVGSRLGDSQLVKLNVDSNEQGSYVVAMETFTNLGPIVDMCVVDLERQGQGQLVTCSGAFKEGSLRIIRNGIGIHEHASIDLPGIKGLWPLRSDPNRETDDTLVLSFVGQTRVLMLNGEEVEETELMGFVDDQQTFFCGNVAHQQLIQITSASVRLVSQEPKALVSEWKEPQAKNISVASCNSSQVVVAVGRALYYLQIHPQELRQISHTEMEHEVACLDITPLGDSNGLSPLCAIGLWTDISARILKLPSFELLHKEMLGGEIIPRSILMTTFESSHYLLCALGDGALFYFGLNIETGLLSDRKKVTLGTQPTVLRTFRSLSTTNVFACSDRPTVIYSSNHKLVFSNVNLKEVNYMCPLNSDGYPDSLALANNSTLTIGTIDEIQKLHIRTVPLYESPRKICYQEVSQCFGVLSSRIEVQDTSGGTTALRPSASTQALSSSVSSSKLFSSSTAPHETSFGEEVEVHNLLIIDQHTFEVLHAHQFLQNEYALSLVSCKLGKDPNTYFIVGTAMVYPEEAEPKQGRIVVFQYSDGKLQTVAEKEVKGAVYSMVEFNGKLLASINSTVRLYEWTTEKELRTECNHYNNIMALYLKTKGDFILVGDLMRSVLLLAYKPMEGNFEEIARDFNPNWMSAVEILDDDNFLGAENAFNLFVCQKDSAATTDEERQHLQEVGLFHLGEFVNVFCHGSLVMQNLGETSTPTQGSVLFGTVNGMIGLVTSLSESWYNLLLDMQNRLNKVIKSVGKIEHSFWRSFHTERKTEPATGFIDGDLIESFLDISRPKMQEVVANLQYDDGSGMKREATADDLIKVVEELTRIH
Procedure: as §1

Chain of HiBiT tagged CK1α (P48729 whole entry): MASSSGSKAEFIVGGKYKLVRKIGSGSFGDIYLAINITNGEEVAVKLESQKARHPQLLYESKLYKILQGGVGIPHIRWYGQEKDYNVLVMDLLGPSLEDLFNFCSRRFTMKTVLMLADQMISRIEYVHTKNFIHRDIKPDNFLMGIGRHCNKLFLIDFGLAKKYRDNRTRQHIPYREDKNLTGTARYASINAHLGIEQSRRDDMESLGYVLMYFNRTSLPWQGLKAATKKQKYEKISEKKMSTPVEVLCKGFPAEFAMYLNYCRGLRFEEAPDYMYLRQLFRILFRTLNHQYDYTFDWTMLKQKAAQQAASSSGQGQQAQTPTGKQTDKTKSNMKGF
Chain of HiBiT tagged CK1α (Q96SW2 whole entry): as the sequence (Q96SW2 whole entry) above
Chain of HiBiT tagged CK1α (Q16531 whole entry partner): as the sequence (Q16531 whole entry partner) above

SMILES	Dmax ([1]; maximum CK1α degradation)	DC50 ([1]; HT-1080 cells)	Dmax [2]	HiBiT CK1α: Dmax ([1]; HT-1080 cells, maximum CK1α degradation)	HiBiT GSPT1: Dmax ([2]; HT-1080 cells)
O=C1CCC(N2Cc3cc(C(=O)N[C@@H](c4cccc(F)c4)C4CC4)ccc3C2=O)C(=O)N1 (stereo in doubt) [Compound 25, N-((*R)-cyclopropyl(3-fluorophenyl)methyl)-2-(2,6-dioxopiperidin-3-yl)-1-oxoisoindoline-5-carboxamide]	54.5%	1580 nM	48.4%	–	–
O=C1CCC(N2Cc3cc(C(=O)N[C@H](c4cccc(C(F)(F)F)c4)C4CC4)ccc3C2=O)C(=O)N1 (stereo in doubt) [Compound 34, N-((*S)-cyclopropyl(3-(trifluoromethyl)phenyl)methyl)-2-(2,6-dioxopiperidin-3-yl)-1-oxoisoindoline-5-carboxamide]	59.5%	446 nM	25.8%	–	–
O=C1CCC(N2Cc3cc(C(=O)N[C@H](c4cccc(Cl)c4)C4CC4)ccc3C2=O)C(=O)N1 (stereo in doubt) [Compound 28, N-((*S)-(3-chlorophenyl)(cyclopropyl)methyl)-2-(2,6-dioxopiperidin-3-yl)-1-oxoisoindoline-5-carboxamide]	60.1%	1150 nM	70.8%	–	–
O=C1CCC(N2Cc3cc(C(=O)N[C@H](c4ccc(F)cc4)C4COC4)ccc3C2=O)C(=O)N1 (stereo in doubt) [Compound 58, 2-(2,6-dioxo-3-piperidyl)-N-[(*S)-(4-fluorophenyl)-(oxetan-3-yl)methyl]-1-oxo-isoindoline-5-carboxamide]	49.7%	–	16.5%	–	–
O=C1CCC(N2Cc3cc(C(=O)N[C@@H](c4ccc(Cl)cn4)C4CCC4)ccc3C2=O)C(=O)N1 (stereo in doubt) [Compound 77, N—((*R)-(5-chloropyridin-2-yl)(cyclobutyl)methyl)-2-(2,6-dioxopiperidin-3-yl)-1-oxoisoindoline-5-carboxamide]	–	–	–	41.1%	23.5%
COc1cccc([C@H](NC(=O)c2ccc3c(c2)CN(C2CCC(=O)NC2=O)C3=O)C2CC2)c1 (stereo in doubt) [Compound 31, N-((*R)-cyclopropyl(3-methoxyphenyl)methyl)-2-(2,6-dioxopiperidin-3-yl)-1-oxoisoindoline-5-carboxamide]	48.1%	–	60%	–	–
O=C1CCC(N2Cc3cc(C(=O)NC(c4ncccc4Cl)C4CC4)ccc3C2=O)C(=O)N1 (stereo not drawn) [Compound 16, N-((3-chloropyridin-2-yl)(cyclopropyl)methyl)-2-(2,6-dioxopiperidin-3-yl)-1-oxoisoindoline-5-carboxamide]	62.2%	303 nM	44.9%	–	–

More lines, now with the values ahead:

Dmax ([1]; maximum CK1α degradation)	DC50 ([1]; HT-1080 cells)	Dmax [2]	HiBiT CK1α: Dmax ([1]; HT-1080 cells, maximum CK1α degradation)	HiBiT GSPT1: Dmax ([2]; HT-1080 cells)	SMILES
62.3%	142 nM	46%	–	–	O=C1CC[C@H](N2Cc3cc(C(=O)N[C@H](c4ccc(F)cc4Cl)C4CCC4)ccc3C2=O)C(=O)N1 (racemic) [Compound 51, N-((*S)-(2-chloro-4-fluorophenyl)(cyclobutyl)methyl)-2-((*S)-2,6-dioxopiperidin-3-yl)-1-oxoisoindoline-5-carboxamide]
66.7%	162 nM	27.9%	–	–	N#Cc1ccccc1[C@@H](NC(=O)c1ccc2c(c1)CN(C1CCC(=O)NC1=O)C2=O)C1CC1 (stereo in doubt) [Compound 64, N-((*S)-(2-cyanophenyl)(cyclopropyl)methyl)-2-(2,6-dioxopiperidin-3-yl)-1-oxoisoindoline-5-carboxamide]
59.3%	198 nM	36.3%	–	–	COc1cccc([C@@H](NC(=O)c2ccc3c(c2)CN(C2CCC(=O)NC2=O)C3=O)C2CC2)c1 (stereo in doubt) [Compound 32, N-((*S)-cyclopropyl(3-methoxyphenyl)methyl)-2-(2,6-dioxopiperidin-3-yl)-1-oxoisoindoline-5-carboxamide]
63.1%	237 nM	42.7%	–	–	O=C1CC[C@@H](N2Cc3cc(C(=O)N[C@H](c4ccc(F)cc4Cl)C4CCC4)ccc3C2=O)C(=O)N1 (racemic) [Compound 50, N-((*S)-(2-chloro-4-fluorophenyl)(cyclobutyl)methyl)-2-((*R)-2,6-dioxopiperidin-3-yl)-1-oxoisoindoline-5-carboxamide]

Reference: patent US12673936B2, “Isoindolinone compounds, and uses thereof” (HANGZHOU GLUBIO PHARMACEUTICAL CO., LTD., priority 2021, dated 2026)
